# Measurements as given in publication PMC7182039 (Journal of medicinal chemistry, 2020).
# “And” between values parts separate entries of the source, which are not always exact repeats. Equal values may be shown once. Read-outs that look alike come from different tables or passages of the source. Marks after values point to notes of the source that are not given here.
# What was measured:
# [1] = test system: juvenile stage of S. mansoni; settings: mice, single 200 mg/kg oral dose; cited from earlier work
# S. mansoni = settings: adult infection, mice, single 400 mg/kg oral dose, cited from earlier work
# [2] = Kinetic solubility by nephelometry; assay type: physicochemical
# osteosarcoma (U-2 OS) = assay: Cytotoxicity screen; assay type: cell-based, human; settings: 24 h, Alamar blue, data not shown
# [3] = In vitro metabolic stability in human liver microsomes; assay type: in vitro ADME; settings: 37 °C, 0.4 mg/mL protein, NADPH
# [4] = In vitro metabolic stability in mouse liver microsomes; assay type: in vitro ADME; settings: 37 °C, 0.4 mg/mL protein, NADPH
# hepatocyte (HC-04) = assay: Cytotoxicity screen; assay type: cell-based, human; settings: HC-04, 24 h, Alamar blue; data not shown
# kidney (HEK 293T) = assay: Cytotoxicity screen; assay type: cell-based, human; settings: 24 h, Alamar blue, data not shown
# [5] = test system: foreskin fibroblast (HFF); assay: Cytotoxicity screen; assay type: cell-based, human; settings: 24 h, Alamar blue, data not shown
# schistosomes = settings: cited from earlier work
structure (smiles),measurement,setting,value
O=C(O)COc1ccc([C@H]2CC[C@]3(CC2)OOC2(O3)C3CC4CC(C3)CC2C4)cc1 (stereo partly shown) [Compound 2],S. mansoni WBR (%) 1 × 200 mg/kg po,[1],100^a %
same,S. mansoni WBR (%) 1 × 400 mg/kg po,S. mansoni; 400 mg/kg,"80^i,j %"
same,sol6.5,"[2]; kinetic solubility, pH 6.5 phosphate buffer, 1% DMSO, 30 min",6.3 to 12.5 µg/mL
O=C(O)c1ccc([C@H]2CC[C@]3(CC2)OOC2(O3)C3CC4CC(C3)CC2C4)cc1 (stereo partly shown) [Compound 3],S. mansoni WBR (%) 1 × 200 mg/kg po,[1],100% and 84^a %
same,S. mansoni WBR (%) 1 × 400 mg/kg po,S. mansoni,"74^i,j %"
O=C(O)CN1CCC(Oc2ccc([C@H]3CC[C@]4(CC3)OOC3(O4)C4CC5CC(C4)CC3C5)cc2)CC1 (stereo partly shown) [Compound 16],cytotoxicity: concentration without inhibition of the cell line,osteosarcoma (U-2 OS),> 50 µM
same,h CLint,[3],<7/<7 μL/(min mg) protein
same,m CLint,[4],<7/<7 μL/(min mg) protein
same,cytotoxicity: concentration without inhibition of the cell line,hepatocyte (HC-04),> 50 µM
same,solubility,[2]; DMSO,< 1000 µg/mL
same,cytotoxicity: concentration without inhibition of the cell line,kidney (HEK 293T),> 50 µM
same,cytotoxicity: concentration without inhibition of the cell line,[5],> 50 µM
c1cc([C@H]2CC[C@]3(CC2)OO[C@]2(O3)C3CC4CC(C3)CC2C4)ccc1OCCN1CCOCC1 [Compound 1],antischistosomal activity,schistosomes,no antischistosomal activity
